For assay [1], the target named is T1, hFASN enzyme (full length) (Homo sapiens, UniProt P49327).
T1 construct: 10 μL hFASN enzyme (full length, 300 ng, purified in house); made in house
Briefly: Fatty Acid Synthase (FASN) inhibition scintillation proximity assay. The assay is classed as biochemical. Particulars: for inhibition at 10 µM: read-out: Human FASN % inhibition @ 10 μM, 10 μM test compound; for IC50: read-out: Human FASN pIC50 (converted). The method in brief: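 Scintillation proximity format: in-house full-length enzyme, 300 ng per well, pH 7.5 phosphate/DTT buffer, ³H-acetyl-CoA and malonyl-CoA. Emission counted on LEADseeker at 610 nm at least 24 h after stopping.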
Background: SPA uses beads or plates that emit light when radiolabelled molecules are held near them.

Assay [2] concerns A2780 ovarian cells. Briefly: A2780 ovarian cell proliferation assay in lipid reduced medium, with palmitate (MTT). The assay is classed as cell-based. Particulars: Homo sapiens, A2780, 96 h; read-out: pIC50 A2780 Ovarian Cell, With Palmitate (converted). The essentials: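 In this palmitate-supplemented format, compound dilutions (30 μM down to 0.01 μM) are added to cells in lipid-reduced serum with 25 μM palmitate, 0.2% fatty-acid-free BSA and 0.25% ethanol. After four days (96 h) MTT absorbance at 544 nm is recorded and fitted by minimum sum of squares.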

Assay [3] concerns A2780 ovarian cells. Briefly: A2780 ovarian cell proliferation assay in lipid reduced medium, without palmitate (MTT). The assay is classed as cell-based. Conditions: Homo sapiens, A2780, 96 h; read-out: pIC50 A2780 Ovarian Cell, Without Palmitate (converted).

A value given as a limit tells only on which side of the number the result lay.

Consider 14 compounds from US10077261B2, “Imidazolin-5-one derivative useful as FASN inhibitors for the treatment of cancer” (Janssen Pharmaceutica NV, priority 2012, dated 2018).

For orientation: inhibition means how much of the control response was suppressed.

T1 sequence (P49327 whole entry): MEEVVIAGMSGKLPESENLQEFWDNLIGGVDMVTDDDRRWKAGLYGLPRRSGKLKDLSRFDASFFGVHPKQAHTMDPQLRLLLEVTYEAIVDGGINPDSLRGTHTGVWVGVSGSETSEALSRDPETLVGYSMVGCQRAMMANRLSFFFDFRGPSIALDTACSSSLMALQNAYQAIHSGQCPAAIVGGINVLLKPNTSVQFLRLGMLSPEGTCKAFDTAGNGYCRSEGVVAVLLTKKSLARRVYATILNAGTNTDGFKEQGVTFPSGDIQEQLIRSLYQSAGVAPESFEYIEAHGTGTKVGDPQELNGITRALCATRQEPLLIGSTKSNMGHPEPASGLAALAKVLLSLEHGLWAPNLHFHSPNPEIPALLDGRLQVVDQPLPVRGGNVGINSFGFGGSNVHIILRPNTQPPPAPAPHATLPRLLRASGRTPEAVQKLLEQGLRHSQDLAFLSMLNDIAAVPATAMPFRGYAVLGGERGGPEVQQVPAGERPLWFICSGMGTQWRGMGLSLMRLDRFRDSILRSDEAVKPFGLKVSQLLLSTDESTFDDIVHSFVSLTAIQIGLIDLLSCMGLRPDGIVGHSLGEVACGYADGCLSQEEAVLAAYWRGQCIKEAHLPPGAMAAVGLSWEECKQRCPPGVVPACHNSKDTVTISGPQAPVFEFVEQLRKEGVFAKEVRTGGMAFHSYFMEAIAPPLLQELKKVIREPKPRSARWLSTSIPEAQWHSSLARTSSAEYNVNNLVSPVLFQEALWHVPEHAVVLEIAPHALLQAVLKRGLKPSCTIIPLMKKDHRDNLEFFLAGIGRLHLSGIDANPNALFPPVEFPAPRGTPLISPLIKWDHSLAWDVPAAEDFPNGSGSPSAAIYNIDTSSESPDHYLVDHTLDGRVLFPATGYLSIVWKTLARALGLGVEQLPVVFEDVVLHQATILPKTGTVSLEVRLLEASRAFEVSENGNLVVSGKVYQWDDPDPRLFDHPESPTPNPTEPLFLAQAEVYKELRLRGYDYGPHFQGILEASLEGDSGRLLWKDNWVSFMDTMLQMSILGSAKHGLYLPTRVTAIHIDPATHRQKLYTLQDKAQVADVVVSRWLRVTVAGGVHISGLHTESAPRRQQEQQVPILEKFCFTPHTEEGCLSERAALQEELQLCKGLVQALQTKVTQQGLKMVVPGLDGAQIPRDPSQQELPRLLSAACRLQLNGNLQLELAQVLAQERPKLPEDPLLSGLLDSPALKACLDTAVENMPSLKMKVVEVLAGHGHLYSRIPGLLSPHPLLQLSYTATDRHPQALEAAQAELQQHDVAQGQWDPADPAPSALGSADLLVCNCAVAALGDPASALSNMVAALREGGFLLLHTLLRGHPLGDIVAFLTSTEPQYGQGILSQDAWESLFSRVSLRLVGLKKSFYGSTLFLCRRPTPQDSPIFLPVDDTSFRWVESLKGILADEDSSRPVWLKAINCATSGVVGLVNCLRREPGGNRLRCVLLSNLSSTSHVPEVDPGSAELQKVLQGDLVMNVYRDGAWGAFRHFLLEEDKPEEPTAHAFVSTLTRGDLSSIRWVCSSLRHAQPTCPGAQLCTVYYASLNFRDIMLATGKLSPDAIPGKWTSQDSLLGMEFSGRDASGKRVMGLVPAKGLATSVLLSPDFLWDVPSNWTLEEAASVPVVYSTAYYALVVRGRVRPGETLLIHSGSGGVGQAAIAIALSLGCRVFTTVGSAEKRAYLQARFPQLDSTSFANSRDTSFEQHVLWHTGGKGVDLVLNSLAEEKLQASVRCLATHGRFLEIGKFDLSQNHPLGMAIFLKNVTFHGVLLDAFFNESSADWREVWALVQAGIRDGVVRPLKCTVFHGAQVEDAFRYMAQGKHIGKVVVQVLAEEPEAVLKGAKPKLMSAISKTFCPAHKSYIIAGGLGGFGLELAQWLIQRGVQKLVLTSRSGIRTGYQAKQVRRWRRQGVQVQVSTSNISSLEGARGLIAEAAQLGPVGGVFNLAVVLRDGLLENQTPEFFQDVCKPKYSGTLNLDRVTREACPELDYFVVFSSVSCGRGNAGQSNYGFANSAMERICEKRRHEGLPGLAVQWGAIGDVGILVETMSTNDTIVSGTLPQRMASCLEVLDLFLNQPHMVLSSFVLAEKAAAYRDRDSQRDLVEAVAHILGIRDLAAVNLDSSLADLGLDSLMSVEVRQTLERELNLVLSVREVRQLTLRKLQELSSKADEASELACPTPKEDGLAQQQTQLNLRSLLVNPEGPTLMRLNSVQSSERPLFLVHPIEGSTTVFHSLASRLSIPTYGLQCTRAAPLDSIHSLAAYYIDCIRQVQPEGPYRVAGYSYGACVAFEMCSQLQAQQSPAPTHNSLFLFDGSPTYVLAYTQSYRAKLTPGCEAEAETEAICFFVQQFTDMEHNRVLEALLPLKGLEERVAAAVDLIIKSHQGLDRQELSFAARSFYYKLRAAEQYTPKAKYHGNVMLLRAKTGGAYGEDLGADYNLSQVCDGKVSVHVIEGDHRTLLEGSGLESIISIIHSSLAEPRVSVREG

Turning to `Cn1ncc2cc(-c3ccc(C4=NC5(CC5)C(=O)N4CC4CN(C(=O)C5CC5)C4)cc3Cl)ccc21` [compound 612, 5-[3-Chloro-4-(1-methyl-1H-indazol-5-yl)phenyl]-6-{[1-(cyclopropylcarbonyl)azetidin-3-yl]methyk}-4,6-diazaspiro[2.4]hept-4-en-7-one], the inhibition at 10 µM in assay [1] was 74%. Also, the IC50 in assay [1] was 2.04 µM; with A2780 ovarian cells [2] it was more than 10 µM; with A2780 ovarian cells [3], 3.8 µM.

Take `Cc1cc(-c2ccc3ccc(C(F)(F)F)nc3c2)ccc1C1=NC2(CC2)C(=O)N1CC1CN(C(=O)C2(C)CC2)C1` [compound 620, 6-({1-[(1-Methylcyclopropyl)carbonyl]azetidin-3-yl}methyl)-5-{2-methyl-4-[2-(trifluoromethyl)quinolin-7-yl]phenyl}-4,6-diazaspiro[2.4]hept-4-en-7-one]: in assay [1], the inhibition at 10 µM is 71%. Besides, the IC50 in assay [1] is 3.98 µM; in the assay on A2780 ovarian cells [2], more than 10 µM; in the assay on A2780 ovarian cells [3] it was approximately 4.79 µM.

On to `Cc1cc(-c2ccc3c(C)cc(Cl)nc3c2)ccc1C1=NC2(CC2)C(=O)N1CC1CN(C(=O)C2(C)CC2)C1` [compound 624, 5-[4-(2-Chloro-4-methylquinolin-7-yl)-2-methylphenyl]-6-({1-[(1-methylcyclopropyl)carbonyl]azetidin-3-yl}methyl)-4,6-diazaspiro[2.4]hept-4-en-7-one], for which the inhibition at 10 µM in assay [1] worked out at 76%. The IC50 in assay [1] was 2.24 µM; in the assay on A2780 ovarian cells [2] it was 6.61 µM; with A2780 ovarian cells [3], 1.45 µM.

Consider `Cc1cc(-c2cc(Cl)c3cn[nH]c3c2)ccc1C1=NC2(CC2)C(=O)N1CC1CN(C(=O)C2CC2)C1` [compound 629, 5-[4-(4-Chloro-1H-indazol-6-yl)-2-methylphenyl]-6-{[1-(cyclopropylcarbonyl)azetidin-3-yl]methyl}-4,6-diazaspiro[2.4]hept-4-en-7-one], for which the inhibition at 10 µM in assay [1] amounted to 55%. In addition, the IC50 in assay [1] was 7.41 µM; with A2780 ovarian cells [2] it was more than 10 µM; with A2780 ovarian cells [3], 7.76 µM.

In the case of `O=C(C1CC1)N1CC(CN2C(=O)C3(CC3)N=C2c2ccc(-c3cc(C(F)(F)F)ccc3F)cc2F)C1` [compound 630, 6-{[1-(Cyclopropylcarbonyl)azetidin-3-yl]methyl}-5-[2′,3-difluoro-5′-(trifluoromethyl)biphenyl-4-yl]-4,6-diazaspiro[2.4]hept-4-en-7-one], the inhibition at 10 µM in assay [1] came out at 67%. Moreover, the IC50 in assay [1] was 3.16 µM; in the assay with A2780 ovarian cells [2] it was more than 10 µM; in the assay on A2780 ovarian cells [3], 4.07 µM.

`CC(C)S(=O)(=O)c1cccc(-c2ccc(C3=NC4(CC4)C(=O)N3CC3CN(C(=O)C4CC4)C3)c(F)c2)c1` [compound 631, 6-{[1-(Cyclopropylcarbonyl)azetidin-3-yl]methyl}-5-{3-fluoro-3′-[(1-methylethyl)sulfonyl]biphenyl-4-yl}-4,6-diazaspiro[2.4]hept-4-en-7-one]: the inhibition at 10 µM in assay [1] was determined as 47%. The IC50 in assay [1] is 8.51 µM; in the assay on A2780 ovarian cells [2], more than 10 µM; in the assay with A2780 ovarian cells [3] it was 5.89 µM.

Regarding `CC(C)S(=O)(=O)c1cccc(-c2ccc(C3=NC4(CC4)C(=O)N3C[C@@H]3CCN(C(=O)C4CC4)C3)c(F)c2)c1` [compound 632, 6-{[(3R)-1-(Cyclopropylcarbonyl)pyrrolidin-3-yl]methyl}-5-{3-fluoro-3′-[(1-methylethyl)sulfonyl]biphenyl-4-yl}-4,6-diazaspiro[2.4]hept-4-en-7-one], the inhibition at 10 µM in assay [1] came to 70%. For the same compound, the IC50 in assay [1] was 2.75 µM; in the assay with A2780 ovarian cells [2], more than 10 µM; in the assay with A2780 ovarian cells [3] it was approximately 2.4 µM.

Regarding `Cc1cc(-c2cccc(S(C)(=O)=O)c2)ccc1C1=NC2(CC2)C(=O)N1C[C@@H]1CCN(C(=O)C2CC2)C1` [compound 633, 6-{[(3R)-1-(Cyclopropylcarbonyl)pyrrolidin-3-yl]methyl}-5-[3-methyl-3′-(methylsulfonyl)biphenyl-4-yl]-4,6-diazaspiro[2.4]hept-4-en-7-one], in assay [1], the inhibition at 10 µM came to 56%. Besides, the IC50 in assay [1] is 8.32 µM; in the assay with A2780 ovarian cells [2], more than 10 µM; in the assay on A2780 ovarian cells [3], 5.25 µM.

For `CS(=O)(=O)c1cccc(-c2ccc(C3=NC4(CC4)C(=O)N3C[C@@H]3CCN(C(=O)C4CC4)C3)c(F)c2)c1` [compound 634, 6-{[(3R)-1-(Cyclopropylcarbonyl)pyrrolidin-3-yl]methyl}-5-[3-fluoro-3′-(methylsulfonyl)biphenyl-4-yl]-4,6-diazaspiro[2.4]hept-4-en-7-one], the inhibition at 10 µM in assay [1] turned out to be 68%. Also, the IC50 is 3.02 µM in assay [1], more than 10 µM in the assay on A2780 ovarian cells [2] and 2 µM in the assay with A2780 ovarian cells [3].

As for `Cc1cc(-c2cccc(S(=O)(=O)C(C)C)c2)ccc1C1=NC2(CC2)C(=O)N1C[C@@H]1CCN(C(=O)C2CC2)C1` [compound 636, 6-{[(3R)-1-(Cyclopropylcarbonyl)pyrrolidin-3-yl]methyl}-5-{3-methyl-3′-[(1-methylethyl)sulfonyl]biphenyl-4-yl}-4,6-diazaspiro[2.4]hept-4-en-7-one], the inhibition at 10 µM in assay [1] stood at 59%. Further, the results for the IC50 (in assay [1]; in the assay on A2780 ovarian cells [2]; in the assay with A2780 ovarian cells [3]) were 6.76 µM, more than 10 µM and approximately 5.89 µM, respectively.

As to `Cc1cc(-c2cccc(S(=O)(=O)C3CC3)c2)ccc1C1=NC2(CC2)C(=O)N1CC1CN(C(=O)C2CC2)C1` [compound 640, 6-{[1-(Cyclopropylcarbonyl)azetidin-3-yl]methyl}-5-[3′-(cyclopropylsulfonyl)-3-methylbiphenyl-4-yl]-4,6-diazaspiro[2.4]hept-4-en-7-one], in assay [1], the inhibition at 10 µM was found to be 64%. The IC50 in assay [1] was 5.37 µM; in the assay with A2780 ovarian cells [2], more than 10 µM; in the assay on A2780 ovarian cells [3], 8.32 µM.

For the compound `Cc1cc(-c2cccc(S(=O)(=O)C3CC3)c2)ccc1C1=NC2(CC2)C(=O)N1C[C@@H]1CCN(C(=O)C2CC2)C1` [compound 646, 6-{[(3R)-1-(Cyclopropylcarbonyl)pyrrolidin-3-yl]methyl}-5-[3′-(cyclopropylsulfonyl)-3-methylbiphenyl-4-yl]-4,6-diazaspiro[2.4]hept-4-en-7-one], the inhibition at 10 µM in assay [1] is 88%. The results for the IC50 (in assay [1]; in the assay on A2780 ovarian cells [2]; in the assay with A2780 ovarian cells [3]) were 1.17 µM, more than 10 µM and 2.45 µM, respectively.

As for `Cn1c(-c2ccc(C3=NC4(CC4)C(=O)N3CC3CN(C(=O)C4CC4)C3)c(F)c2)nc2ccccc21` [compound 648, 6-{[1-(Cyclopropylcarbonyl)azetidin-3-yl]methyl}-5-[2-fluoro-4-(1-methyl-1H-benzimidazol-2-yl)phenyl]-4,6-diazaspiro[2.4]hept-4-en-7-one], the inhibition at 10 µM in assay [1] was determined as 74%. The IC50 in assay [1] is 2.57 µM; with A2780 ovarian cells [2] it was more than 10 µM; with A2780 ovarian cells [3] it was 2.51 µM.

Take `Cc1cc(-c2cccc(SC3CC3)c2)ccc1C1=NC2(CC2)C(=O)N1CC1CN(C(=O)C2CC2)C1` [compound 650, 6-{[1-(Cyclopropylcarbonyl)azetidin-3-yl]methyl}-5-[3′-(cyclopropylsulfanyl)-3-methylbiphenyl-4-yl]-4,6-diazaspiro[2.4]hept-4-en-7-one]: the inhibition at 10 µM in assay [1] worked out at 84%. Further, the IC50 was 1.35 µM in assay [1], more than 10 µM with A2780 ovarian cells [2] and 4.9 µM with A2780 ovarian cells [3].
